PMC6175062, “Gaining Mechanistic Insight Into Coproporphyrin I as Endogenous Biomarker for OATP1B‐Mediated Drug–Drug Interactions Using Population Pharmacokinetic Modeling and Simulation” (Clinical Pharmacology and Therapeutics, 2018)
Where two headings read alike, the source gives them in different places.

Experiments:
[1] = parameters: method as in PMID 25813937; conditions: in humans; cited from earlier work
OATP1B1 = experiment: Literature rifampicin in vitro Ki/IC50 in transfected OATP1B1 cells; format: cell-based
Text: In addition, literature reported in vitro RIF inhibition data in OATP1B1-transfected cell lines using either CPI or other OATP1B1 probes (Table S5) were collated to understand further any potential differences between in vitro and in vivo estimated RIF inhibition parameters.

OATP [2] = conditions: inhibitor 600 mg, rosuvastatin 5 mg; ref (20); cited from earlier work
OATP [3] = target: OATP; parameters: method as in PMID 27170342; conditions: cited from earlier work
OATP [4] = experiment: Model-based rifampicin in vivo OATP Ki using rosuvastatin as probe; parameters: species or system human; conditions: total (not corrected for fu); RSV as probe; read-out: KiRSV, total Ki estimated by the model, population estimate (SE%)
Text: Based on the available plasma and urine data, a two compartment first order absorption and elimination model was used to describe the PK of RSV in the subjects. The model was parameterised using [picture] , volume of distribution of central ( [picture] ) and peripheral compartments ( [picture] ), inter-compartmental clearance ( [picture] ), biliary ( [picture] ) and renal ( [picture] ) clearance parameters. Analogous to CPI, inhibition of [picture] by RIF was incorporated in the rate of change of RSV plasma concentration, whereas it was assumed that RIF has no effect on RSV renal elimination (Eq 2). The rate of change of RSV amount in urine over time is shown in Eq3.
where [picture] and [picture] are RSV concentrations in central (plasma) and peripheral compartments, [picture] is the amount in depot compartment, [picture] is RSV amount in the urine and [picture] is RIF transporter inhibition constant using RSV as a probe. Change in RSV distribution parameters ( [picture] , [picture] and [picture] ) following co-administration with RIF was also investigated as a binary covariate where two sets of parameters were estimated under the two experimental conditions; RSV alone and RSV under treatment (presence of RIF).

[5] = test system: OATP1B-mediated CPI uptake in human hepatocytes; experiment: Rifampicin inhibition of CPI uptake in plated human hepatocytes; format: cell-based
Experimental: (§1) The in vitro IC50 for rifampicin was assessed using CPI and RSV as OATP probe substrates in plated human hepatocytes. Cryopreserved human hepatocytes (Donor QQE, BioreclamationIVT, Baltimore, MD) were thawed and plated at a density of 350,000 cells (1). After culturing for 4h, hepatocytes were washed twice with Dulbecco's phosphate-buffered saline and pre-incubated for an hour with either buffer or rifampicin (0.01-100µM). Following pre-incubation, the medium was replaced with CPI (0.30µM) or RSV (2µM) containing rifampicin (0-100µM). Incubations were stopped after 3 or 5 minutes (for RSV and CPI,respectively) using the washing protocol described previously (2). Monolayers were lysed with water and frozen overnight and then prepared for protein quantification (BCA assay) and LC-MS/MS analysis.
(§2) Lysate concentrations were used to demine uptake rates over a series of free RIF concentrations measured in the medium and plotted as a % of the control to estimate RIF IC50 (Main article Figure 5A and Figure S1). RIF IC50 was determined using equation 1, where U denotes the uptake rate (% vs control) at the free inhibitor concentration in the incubation [I] (µM); R, the range of inhibition; B, the un-inhibitable background (%), and S, the slope factor (GraFit v6).

OATP1B [6] = experiment: as above; format: cell-based; conditions: human, plated cryopreserved human hepatocytes, probe CPI (coproporphyrin I) 0.30 µM, CPI 0.30 µM
Experimental: as §1, §2

OATP1B [7] = experiment: Model-based rifampicin in vivo OATP Ki using CPI as probe; parameters: species or system human; conditions: for Ki: human, plasma, oral, 600 mg, probe CPI (endogenous biomarker)
Experimental: The plasma concentrations of the endogenous biomarker CPI were described using a turnover model (Equation 3).36 Simultaneous fitting of individual CPI plasma and urine data in the presence and absence of RIF was performed. In the final model, RIF inhibited biliary elimination (CL b,CPI) of CPI, whereas its renal clearance (CL R,CPI) and k syn were not affected. The rate of change of CPI plasma concentration under baseline and RIF condition is shown in Equations 3 and 4, respectively, whereas change in CPI amount in urine over time is shown in Equation 5. (3) dCCPI/dt=[ksyn−CLb,CPI⋅CCPI−CLR,CPI⋅CCPI]⋅1/VCPI (4) dCCPI/dt=[ksyn−CLb,CPI⋅CCPI/1+CRIF/KiCPI−CLR,CPI⋅CCPI]⋅1/VCPI (5) dUCPI/dt=CLR,CPI⋅CCPI where C CPI is its plasma concentration, U CPI is the CPI amount in urine, t is time, k syn is the zero‐order synthesis rate, Ki CPI is RIF transporter inhibition constant using CPI as a probe, V CPI is the volume of distribution of CPI and C RIF is RIF plasma concentration (linked to RIF model). Simulations were also performed to assess the consequences of the hypothetical inhibition of both CPI synthesis (k syn and biliary elimination (CL b,CPI) by inhibitor of interest (details in Supplementary Material).

OATP2B1 = test system: OATP2B1; parameters: method as in PMID 24617605, PMID 20102298; conditions: inconsistent data; read-out: IC50, OATP2B1 inhibition; cited from earlier work
OATP1B3 = test system: OATP1B3; parameters: method as in earlier work; conditions: ref (3, 4), cited from earlier work

In the case of CO[C@H]1/C=C/O[C@@]2(C)Oc3c(C)c(O)c4c(O)c(c(/C=N/N5CCN(C)CC5)c(O)c4c3C2=O)NC(=O)/C(C)=C\C=C\[C@H](C)[C@H](O)[C@@H](C)[C@@H](O)[C@@H](C)[C@H](OC(C)=O)[C@@H]1C [rifampicin], the “unbound liver-to-plasma concentration ratio” value [1] is listed as 3.3, the “range in literature RIF IC50 (Table S5)” value (OATP1B1) is listed as 30 fold and the “difference between in vivo Ki and literature in vitro data in OATP1B1-transfected cells” value (OATP1B1; depending on in vitro probe) is listed as “up to 50 fold”. The “Fold Change in AUC of rosuvastatin” value (OATP [2]) was 4.7 fold, the Ki (OATP [3]; read-out: in vivo Ki estimated from pitavastatin clinical data) was 230 nM and the Ki (OATP [3]; read-out: in vivo Ki estimated from pravastatin clinical data) was 190 nM. The Ki (OATP [4]) was 2230 nM, the “IC50 with CPI in hepatocytes, fold lower than reported values in transfected OATP1B1 cells” value [5] was “up to 10 fold” and the “increase in potency of inhibition of CPI uptake by preincubation with RIF” value [5] was about 2 fold. The “in vitro hepatocyte inhibition parameter (after preincubation) relative to in vivo Ki” value ([5]; in vitro higher than in vivo) was 4 fold, the IC50 at 5 min (OATP1B [6]; 60 min pre-incubation with buffer, read-out: IC50, CPI uptake, pre-incubation with buffer) was 730 nM and the IC50 at 5 min (OATP1B [6]; 60 min pre-incubation with inhibitor, donor QQE, read-out: IC50, CPI uptake, pre-incubation with RIF) was 300 nM. The “difference between unbound in vivo Ki from CPI and from RSV” value (OATP1B [7]; CPI-based Ki lower) was 2 fold, the Ki (OATP1B [7]; corrected for rifampicin fu plasma 0.11, read-out: in vivo unbound OATP Ki using CPI data) was 130 nM and the Ki (OATP1B [7]; total (not corrected for fu), CPI as probe, read-out: KiCPI, total Ki estimated by the model, population estimate (SE%)) was 1150 nM. For the same compound, the IC50 (OATP2B1) was 2100 to 81000 nM, the IC50 (OATP1B3; read-out: IC50, OATP1B3 transfected cells, CPI as substrate) was 250 to 1610 nM and the IC50 (OATP1B3; read-out: IC50, OATP1B3 transfected cells, CPIII as substrate) was 270 to 1410 nM.
